Among the data in patent publication US11033539B2, “Compounds of formulas (VII), (VIII), (IX), (XI), (XII), (XIII), and (XIV) as muscarinic receptor 4(M4) antagonists for treating neurological diseases” (Neurocrine Biosciences, Inc., priority 2015, dated 2021) are Ki values, retold here.

Some results are limits rather than exact numbers.

For one assay, the target named is human M3 receptor (Homo sapiens (Human), UniProt P20309). Briefly: Radioligand (tritiated N-methylscopolamine) binding assay, M3. Particulars: CHO cell membranes expressing human M3; 1.5 nM tritiated N-methylscopolamine; 90 min, 37° C.; read-out: Ki against M3 receptor (Table 21, M3). As to the method:
(§1) Binding affinity (Ki) of compounds was measured by inhibition of radioligand binding to membranes from CHO cells expressing human M1, M2, M3, M4 and M5 receptors. Membranes were prepared by nitrogen cavitation and differential centrifugation as previously described (Hoare et al., Mol. Pharmacol. 2003 March; 63(3): 751-65). The radioligand employed was tritiated N-methylscopolamine, used at a concentration of 1.5 nM. A dose-response of twelve concentrations of compound was used, ranging from 10 μM to […]. The assay buffer was 50 mM HEPES, 100 mM NaCl, 5 mM MgCl2, 1 mM ethylenediaminetetraacetic acid, pH-adjusted to pH 7.4. Membranes, radioligand and compound were incubated together for 90 minutes at 37° C., in a total volume of 150 μl in a 96-well plate. Receptor-bound radioligand was then collected by harvesting the assay over glass fiber filters pretreated with polyethylenimine to trap the cell membranes, using rapid vacuum filtration. Harvesting and radioactivity counting was conducted as previously described (see, e.g., Hoare et al., Mol. Pharmacol. 2003 63(3):751-65); Erratum at Mol. Pharmacol. 2005 July; 68(1): 260).

For another assay, the target named is human M5 receptor (Homo sapiens (Human), UniProt P08912). Briefly: Radioligand (tritiated N-methylscopolamine) binding assay, M5. Conditions: CHO cell membranes expressing human M5; 1.5 nM tritiated N-methylscopolamine; 90 min, 37° C.; read-out: Ki against M5 receptor (Table 21, M5). As to the method:
as §1

For the next assay, the target named is human M1 receptor (Homo sapiens (Human), UniProt P11229). As to the kind of experiment: Radioligand (tritiated N-methylscopolamine) binding assay, M1. Conditions: CHO cell membranes expressing human M1; 1.5 nM tritiated N-methylscopolamine; 90 min, 37° C.; read-out: Ki against M1 receptor (Table 21, M1). As to the method: as §1
For the next assay, the target named is human M2 receptor (Homo sapiens (Human), UniProt P08172). Briefly: Radioligand (tritiated N-methylscopolamine) binding assay, M2. Conditions: CHO cell membranes expressing human M2; 1.5 nM tritiated N-methylscopolamine; 90 min, 37° C.; read-out: Ki against M2 receptor (Table 21, M2). As to the method: as §1
The target in a further assay is human M4 receptor (Homo sapiens (Human), UniProt P08173). As to the kind of experiment: Radioligand (tritiated N-methylscopolamine) binding assay, M4. Particulars: Ki against the M4 receptor; membranes from CHO cells expressing human M4; tritiated N-methylscopolamine 1.5 nM; read-out: Ki. Summed up: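 CHO membranes; 1.5 nM radioligand; 12-point compound dose-response, 10 μM to […]; HEPES/NaCl/MgCl2/EDTA buffer pH 7.4; 90 min, 37 °C. PEI-treated glass fiber filtration, radioactivity counting. Ki from inhibition of binding.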
Chain of human M4 receptor (P08173 whole entry): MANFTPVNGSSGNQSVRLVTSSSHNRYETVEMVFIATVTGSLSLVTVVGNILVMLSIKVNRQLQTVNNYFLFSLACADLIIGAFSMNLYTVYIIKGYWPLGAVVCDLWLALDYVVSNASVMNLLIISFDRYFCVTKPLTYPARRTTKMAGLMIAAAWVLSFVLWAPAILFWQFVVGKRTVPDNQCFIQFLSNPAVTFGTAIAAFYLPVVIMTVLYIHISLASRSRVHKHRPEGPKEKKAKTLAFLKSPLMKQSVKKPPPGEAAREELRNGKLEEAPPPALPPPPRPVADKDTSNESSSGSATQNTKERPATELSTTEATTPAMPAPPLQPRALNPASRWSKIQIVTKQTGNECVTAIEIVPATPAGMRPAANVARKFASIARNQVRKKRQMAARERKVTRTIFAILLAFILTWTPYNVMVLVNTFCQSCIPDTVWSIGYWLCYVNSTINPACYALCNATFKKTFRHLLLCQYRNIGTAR

Chain of human M2 receptor (P08172 whole entry): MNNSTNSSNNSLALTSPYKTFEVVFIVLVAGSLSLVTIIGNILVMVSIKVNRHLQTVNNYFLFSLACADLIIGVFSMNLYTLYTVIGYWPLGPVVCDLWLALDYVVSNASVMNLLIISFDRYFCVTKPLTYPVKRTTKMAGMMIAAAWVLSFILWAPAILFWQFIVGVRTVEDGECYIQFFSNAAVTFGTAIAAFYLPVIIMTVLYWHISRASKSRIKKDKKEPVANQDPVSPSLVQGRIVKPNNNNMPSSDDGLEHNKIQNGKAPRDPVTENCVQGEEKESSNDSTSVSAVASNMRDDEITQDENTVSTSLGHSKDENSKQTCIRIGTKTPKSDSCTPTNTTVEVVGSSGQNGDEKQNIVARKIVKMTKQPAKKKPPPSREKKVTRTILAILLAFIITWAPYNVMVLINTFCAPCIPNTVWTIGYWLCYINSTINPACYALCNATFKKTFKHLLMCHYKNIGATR
Chain of human M1 receptor (P11229 whole entry): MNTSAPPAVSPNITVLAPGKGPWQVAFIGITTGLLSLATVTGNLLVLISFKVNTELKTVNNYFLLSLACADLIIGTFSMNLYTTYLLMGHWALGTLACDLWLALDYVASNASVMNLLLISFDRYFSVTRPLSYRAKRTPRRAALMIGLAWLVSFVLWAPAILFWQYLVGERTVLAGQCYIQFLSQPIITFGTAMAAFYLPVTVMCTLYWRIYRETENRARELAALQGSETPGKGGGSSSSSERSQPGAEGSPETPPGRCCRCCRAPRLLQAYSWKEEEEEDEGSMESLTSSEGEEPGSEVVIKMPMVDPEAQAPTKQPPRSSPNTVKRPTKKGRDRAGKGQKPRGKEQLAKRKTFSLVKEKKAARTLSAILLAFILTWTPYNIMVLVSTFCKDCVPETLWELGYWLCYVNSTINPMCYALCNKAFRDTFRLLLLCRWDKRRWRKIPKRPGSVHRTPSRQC
Chain of human M3 receptor (P20309 whole entry): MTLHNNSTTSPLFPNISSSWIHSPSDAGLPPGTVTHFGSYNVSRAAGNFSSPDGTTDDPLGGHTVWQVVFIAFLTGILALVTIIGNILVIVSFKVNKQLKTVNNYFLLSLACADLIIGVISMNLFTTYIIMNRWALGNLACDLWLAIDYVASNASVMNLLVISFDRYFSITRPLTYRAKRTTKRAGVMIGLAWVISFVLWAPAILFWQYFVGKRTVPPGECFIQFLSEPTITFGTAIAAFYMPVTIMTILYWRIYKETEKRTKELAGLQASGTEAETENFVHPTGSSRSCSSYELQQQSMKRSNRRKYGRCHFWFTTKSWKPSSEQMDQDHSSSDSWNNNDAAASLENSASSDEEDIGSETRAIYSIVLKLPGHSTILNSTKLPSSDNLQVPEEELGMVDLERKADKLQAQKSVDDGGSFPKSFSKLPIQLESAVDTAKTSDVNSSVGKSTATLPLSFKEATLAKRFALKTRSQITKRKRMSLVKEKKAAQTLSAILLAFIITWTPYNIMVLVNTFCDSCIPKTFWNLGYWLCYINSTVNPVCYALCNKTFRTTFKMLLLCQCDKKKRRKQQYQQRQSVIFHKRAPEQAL
Chain of human M5 receptor (P08912 whole entry): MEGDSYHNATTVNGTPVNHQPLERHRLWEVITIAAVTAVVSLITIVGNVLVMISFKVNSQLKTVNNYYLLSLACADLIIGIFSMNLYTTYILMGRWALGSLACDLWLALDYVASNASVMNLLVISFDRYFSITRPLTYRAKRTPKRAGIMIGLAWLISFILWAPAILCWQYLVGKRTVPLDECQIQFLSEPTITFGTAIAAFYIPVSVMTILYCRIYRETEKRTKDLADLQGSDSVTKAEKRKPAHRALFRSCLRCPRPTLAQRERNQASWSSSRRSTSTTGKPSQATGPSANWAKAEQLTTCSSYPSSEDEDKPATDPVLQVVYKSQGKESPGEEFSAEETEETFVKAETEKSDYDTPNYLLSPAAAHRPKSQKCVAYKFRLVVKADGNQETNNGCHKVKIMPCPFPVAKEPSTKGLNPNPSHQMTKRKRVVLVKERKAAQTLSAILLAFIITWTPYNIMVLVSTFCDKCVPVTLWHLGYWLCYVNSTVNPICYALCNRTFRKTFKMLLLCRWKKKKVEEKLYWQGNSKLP

The term Ki denotes a measure of affinity in units of concentration, obtained from inhibition or displacement. On to `C[C@@H]1CN(c2ncc(C(F)(F)F)cc2F)CCN1C(=O)NCCC1CCN(Cc2ccccc2)CC1` [3-10, (2R)-N-[2-(1-benzylpiperidin-4-yl)ethyl]-4-[3-fluoro-5-(trifluoromethyl)pyridin-2-yl]-2-methylpiperazine-1-carboxamide], for which the Ki was 100 to 1000 nM at human M3 receptor; over 1000 nM at human M5 receptor; 100 to 1000 nM at human M1 receptor; 10 to 100 nM at human M2 receptor; under 10 nM at human M4 receptor.
With `C[C@@H]1CN(c2cc(F)cc(C#N)c2)CCN1C(=O)NCCC1CCN(Cc2ccccc2)CC1` [3-11, (2R)-N-[2-(1-benzylpiperidin-4-yl)ethyl]-4-(3-cyano-5-fluorophenyl)-2-methylpiperazine-1-carboxamide], the Ki on human M3 receptor was over 1000 nM; at human M5 receptor it was over 1000 nM; on human M1 receptor it was over 1000 nM; on human M2 receptor, 100 to 1000 nM; on human M4 receptor, under 10 nM.
Take `C[C@@H]1CN(c2cc(F)c(F)c(F)c2)CCN1C(=O)NCCC1CCN(Cc2ccccc2)CC1` [3-12, (2R)-N-[2-(1-benzylpiperidin-4-yl)ethyl]-2-methyl-4-(3,4,5-trifluorophenyl)piperazine-1-carboxamide]: the Ki is over 1000 nM at human M3 receptor; over 1000 nM at human M5 receptor; 100 to 1000 nM at human M1 receptor; 10 to 100 nM on human M2 receptor; under 10 nM on human M4 receptor.
On to `C[C@@H]1CN(c2ccc(OC(F)(F)F)cn2)CCN1C(=O)NCCC1CCN(Cc2ccccc2)CC1` [3-13, (2R)-N-[2-(1-benzylpiperidin-4-yl)ethyl]-2-methyl-4-[5-(trifluoromethoxy)pyridin-2-yl]piperazine-1-carboxamide], for which the Ki on human M3 receptor was over 1000 nM; at human M5 receptor, over 1000 nM; at human M1 receptor, 100 to 1000 nM; on human M2 receptor, 100 to 1000 nM; on human M4 receptor, under 10 nM.
`C[C@@H]1CN(c2ccc(C(F)(F)F)cn2)CCN1C(=O)NCCC1CCN(Cc2ccccc2)CC1` [3-14, (2R)-N-[2-(1-benzylpiperidin-4-yl)ethyl]-2-methyl-4-[5-(trifluoromethyl)pyridin-2-yl]piperazine-1-carboxamide]: the inhibition constant (Ki) on human M3 receptor was over 1000 nM; on human M5 receptor, over 1000 nM; at human M1 receptor it was 100 to 1000 nM; on human M2 receptor, 10 to 100 nM; on human M4 receptor it was under 10 nM.
On to `C[C@@H]1CN(c2cc(F)c(F)c(F)c2)CCN1C(=O)NC[C@H](O)C1CCN(Cc2ccccc2)CC1` [3-16, (2R)-N-[(2R)-2-(1-benzylpiperidin-4-yl)-2-hydroxyethyl]-2-methyl-4-(3,4,5-trifluorophenyl)piperazine-1-carboxamide], for which the Ki on human M3 receptor is over 1000 nM; on human M5 receptor, over 1000 nM; at human M1 receptor, over 1000 nM; at human M2 receptor, over 1000 nM; at human M4 receptor, under 10 nM.
`C[C@@H]1CN(c2cc(F)c(F)c(F)c2)CCN1C(=O)NCCC1CCN(Cc2ccccc2)CC1CO` (stereo partly drawn) [3-17, (2R)-N-{2-[1-benzyl-3-(hydroxymethyl)piperidin-4-yl]ethyl}-2-methyl-4-(3,4,5-trifluorophenyl)piperazine-1-carboxamide]: the inhibitory constant (Ki) was over 1000 nM at human M3 receptor; over 1000 nM at human M5 receptor; over 1000 nM at human M1 receptor; 100 to 1000 nM at human M2 receptor; under 10 nM at human M4 receptor.
As for `C[C@@H]1CN(c2ccc(F)c(C#N)c2)CCN1C(=O)NC[C@@H](O)C1CCN(Cc2ccccc2)CC1` [3-18, (2R)-N-[(2S)-2-(1-benzylpiperidin-4-yl)-2-hydroxyethyl]-4-(3-cyano-4-fluorophenyl)-2-methylpiperazine-1-carboxamide], the inhibition constant Ki at human M3 receptor is over 1000 nM; at human M5 receptor it was over 1000 nM; at human M1 receptor, over 1000 nM; on human M2 receptor it was over 1000 nM; on human M4 receptor, under 10 nM.
In the case of `O=C(NCCC1CCN(Cc2ccccc2)CC1CO)N1CCN(c2cc(F)c(F)c(F)c2)CC1` (centres unmarked) [3-19, N-{2-[1-benzyl-3-(hydroxymethyl)piperidin-4-yl]ethyl}-4-(3,4,5-trifluorophenyl)piperazine-1-carboxamide], the Ki on human M3 receptor was over 1000 nM; on human M5 receptor, over 1000 nM; on human M1 receptor it was over 1000 nM; on human M2 receptor, 100 to 1000 nM; on human M4 receptor, under 10 nM.
`C[C@@H]1CN(c2ccc(OC(F)(F)F)c(C#N)c2)CCN1C(=O)NC[C@@H](O)C1CCN(Cc2ccccc2)CC1` [3-21, (2R)-N-[(2S)-2-(1-benzylpiperidin-4-yl)-2-hydroxyethyl]-4-[3-cyano-4-(trifluoromethoxy)phenyl]-2-methylpiperazine-1-carboxamide]: the Ki at human M3 receptor was over 1000 nM; on human M5 receptor, over 1000 nM; at human M1 receptor it was over 1000 nM; on human M2 receptor, 100 to 1000 nM; at human M4 receptor it was under 10 nM.
As to `C[C@@H]1CN(c2cc(F)c(F)c(F)c2)CCN1C(=O)NC[C@@H](O)C1CCN(Cc2ccccc2)CC1` [3-22, (2R)-N-[(2S)-2-(1-benzylpiperidin-4-yl)-2-hydroxyethyl]-2-methyl-4-(3,4,5-trifluorophenyl)piperazine-1-carboxamide], the Ki was over 1000 nM at human M3 receptor; over 1000 nM at human M5 receptor; over 1000 nM on human M1 receptor; 100 to 1000 nM on human M2 receptor; under 10 nM on human M4 receptor.
For the molecule `C[C@@H]1CN(c2ccc(C#N)cn2)C[C@H](C)N1C(=O)NCCC1CCN(Cc2ccccc2)CC1` [3-23, (2S,6R)-N-[2-(1-benzylpiperidin-4-yl)ethyl]-4-(5-cyanopyridin-2-yl)-2,6-dimethylpiperazine-1-carboxamide], the Ki is over 1000 nM at human M3 receptor; over 1000 nM on human M5 receptor; over 1000 nM on human M1 receptor; 100 to 1000 nM on human M2 receptor; under 10 nM at human M4 receptor.
On to `C[C@@H]1CN(c2ccc(F)c(C#N)c2)CCN1C(=O)NCCC1CCN(Cc2ccccc2)CC1` [4-1, (2R)-N-[2-(1-benzylpiperidin-4-yl)ethyl]-4-(3-cyano-4-fluorophenyl)-2-methylpiperazine-1-carboxamide], for which the Ki at human M3 receptor is over 1000 nM; at human M5 receptor, over 1000 nM; on human M1 receptor, 100 to 1000 nM; on human M2 receptor, 100 to 1000 nM; on human M4 receptor, under 10 nM.
For the molecule `C[C@@H]1CN(c2ccc(C(F)(F)F)cc2)CCN1C(=O)NCCC1CCN(Cc2ccccc2)CC1` [4-5, (2R)-N-[2-(1-benzylpiperidin-4-yl)ethyl]-2-methyl-4-[4-(trifluoromethyl)phenyl]piperazine-1-carboxamide], the Ki at human M3 receptor is over 1000 nM; on human M5 receptor, over 1000 nM; on human M1 receptor, 100 to 1000 nM; on human M2 receptor, 10 to 100 nM; on human M4 receptor it was under 10 nM.
For the molecule `C[C@H]1CN(c2ccc(OC(F)(F)F)cc2)CCN1C(=O)NCCC1CCN(Cc2ccccc2)CC1` [4-10, (2S)-N-[2-(1-benzylpiperidin-4-yl)ethyl]-2-methyl-4-[4-(trifluoromethoxy)phenyl]piperazine-1-carboxamide], the Ki was 100 to 1000 nM at human M3 receptor; 100 to 1000 nM on human M5 receptor; 100 to 1000 nM at human M1 receptor; 10 to 100 nM on human M2 receptor; under 10 nM on human M4 receptor.
For the molecule `C[C@@H]1CN(c2nc(Cl)cc(C#N)n2)C[C@H](C)N1C(=O)NCCC1CCN(Cc2ccccc2)CC1` [4-11, (2S,6R)-N-[2-(1-benzylpiperidin-4-yl)ethyl]-4-(4-chloro-6-cyanopyrimidin-2-yl)-2,6-dimethylpiperazine-1-carboxamide], the Ki on human M3 receptor was over 1000 nM; on human M5 receptor, over 1000 nM; at human M1 receptor, 100 to 1000 nM; on human M2 receptor, 10 to 100 nM; on human M4 receptor, under 10 nM.
